Data from patent publication US9279010B2, “Treatment of inflammatory bowel diseases with mammal beta defensins” (Defensin Therapeutics ApS, priority 2008, dated 2016).
Where no end group is shown, it is not given here.

Legend:
[1] = system: human PBMC; test: IL-23 in supernatants of human PBMC, ELISA (Example 6, Table 25); assay type: cell-based
Experimental: (§1) Peripheral blood was drawn from healthy volunteers (with approval from the relevant ethical committee in Denmark). Heparinized blood was diluted 1/1 v/v with RPMI and were subjected to Ficoll density centrifugation within 2 h of drawing. Plasma was collected from the top from individual donors and was kept on ice until it was used at 2% in the culture medium (autologous culture medium). Isolated PBMC were resuspended in autologous culture medium and seeded in 96-well culture plates with 255.000 cells per well in a total of 200 μl. […] The concentrations used for stimulation were optimized on 3 different donors in initial experiments, for LPS two different concentrations were used to be sure to be on a cytokine level that is possible to modulate. In some experiments PBMC were treated with Dexamethason and Indomethacin alone and together with LPS or LTA as a control on downregulation of inflammatory cytokines. The supernatants were collected after incubation at 37° C. for 24 hours, and stored at −80° C. until cytokine measurement. Viability was measured by Alamar Blue (Biosource, DALL 1100) in all experiments and in some cases also by MTS (Promega) according to manufacturer's instruction and was in some experiments also judged by counting of the cells by a Nucleocounter.
Example 6 was carried out essentially as described in Example 4 for human PBMCs; however, the readout was IL-23 instead of TNF, IL-1β and IL-10. Moreover, the effect of rhBD2 on human monocyte-derived dendritic cells was also investigated.
Cell culture supernatants were collected and stored at −80° C. Amounts of IL-23 was measured by standard sandwich ELISA using commercially available antibodies and standards according to the manufacturer's protocols (eBioscience).
All experiments were performed at least twice, with representative results shown. The data presented are expressed as mean plus/minus standard deviation […]. […] Differences were considered significant for p<0.05.

[2] = system: human peripheral blood mononuclear cells (PBMC); test: TNF production from LPS-treated human PBMC, CBA (Example 5); assay type: cell-based; conditions: Table 21
Experimental: as §1
(§2) Cytokine production in supernatants was measured by flow cytometry with a human inflammation cytometric bead array (CBA) according to manufacturer's instructions (BD) on a FACSarray flow cytometer. The following cytokines were measured: IL-8, IL-1β, IL-10, TNF, IL-12 p70, IL-6. In some experiments, cytokines were measured by ELISA kits from R&D systems (IL-10, TNF-α, IL-1β) according to the manufacturer′ instruction.
(§3) Example 5 was carried out essentially as described in Example 4.
(§4) In each table, all samples were tested on the same donor. SD means standard deviation.

[3] = system: human peripheral blood mononuclear cells (PBMC); test: IL-10 production from LPS-treated human PBMC, CBA (Example 5); assay type: cell-based; conditions: Table 22
Experimental: as §1, §2, §4

[4] = system: human peripheral blood mononuclear cells (PBMC); test: IL-1β production from LPS-treated human PBMC, CBA (Example 5, Table 23); assay type: cell-based
Experimental: as §1, §2, §3, §4

[5] = system: human peripheral blood mononuclear cells (PBMC); test: TNF production from LPS-treated human PBMC, CBA (Example 7, Table 26); assay type: cell-based; conditions: test compound 1 μg/ml
Experimental: as §1, §2
(§5) Example 7 was carried out essentially as described in Example 4 for human PBMCs. […] The amino acid sequence of mBD3 is shown in SEQ ID NO:6. Mouse PBMCs were prepared as described below.

[6] = system: mouse peripheral blood mononuclear cells (PBMC); test: TNF production from LPS-treated mouse PBMC, CBA (Example 7); assay type: cell-based, mouse (NMRI); conditions: 1 μg/ml
Experimental: as §5
Mouse peripheral blood mononuclear cells were isolated from blood of ten NMRI mice. In short, heparinized blood was diluted 1/1 v/v with RPMI and subjected to Ficoll density centrifugation within 2 h of drawing. Plasma was collected from the top and discarded. Isolated PBMC were resuspended in culture medium (RPMI 1640 (Gibco, 42401) w/ 1% penicillin and streptomycin and 1% L-Glutamine) and seeded in 96-well culture plates with 115.500 cells per well in a total of 200 μl. […] The supernatants were collected after incubation at 37° C. for 24 hours, and stored at −80° C. until cytokine measurement.
Cytokine production in supernatants was measured by flow cytometry with a mouse inflammation cytometric bead array (CBA) according to manufacturer's instructions (BD) on a FACSarray flow cytometer.

[7] = concentration not given, LPS 0.6 ng/ml
[8] = concentration not given, LPS 20 ng/ml
[9] = concentration not given, Medium
[10] = LPS 0.6 ng/ml, concentration of test compound not given
[11] = LPS 20 ng/ml, concentration of test compound not given
[12] = LPS 0.6 ng/ml, test compound 1 μg/ml
[13] = LPS 20 ng/ml, test compound 1 μg/ml
[14] = LPS 0.6 ng/ml, test compound 10 μg/ml
[15] = LPS 0.6 ng/ml, test compound 40 μg/ml
[16] = LPS 20 ng/ml, test compound 10 μg/ml
[17] = LPS 20 ng/ml, test compound 40 μg/ml

Compound: C[C@@H]1C[C@H]2[C@@H]3CCC4=CC(=O)C=C[C@]4(C)[C@@]3(F)[C@@H](O)C[C@]2(C)[C@@]1(O)C(=O)CO [Dexamethasone]
- IL-23 pg/ml ([1]; Control (medium), test compound 3.5 ng/ml): 222 pg/mL
- IL-23 pg/ml ([1]; LTA 5 μg/ml, test compound 3.5 ng/ml): 223 pg/mL

Compound: Infliximab: anti-inflammatory compound, positive control on downregulation of TNF [reference compound]
- TNF [2, 7]: 0 pg/mL
- TNF % of control [2, 7]: 0%
- TNF [2, 8]: 0 pg/mL
- TNF % of control [2, 8]: 0%
- TNF [2, 9]: 0 pg/mL
- IL-10 [3, 7]: 46 pg/mL
- IL-10 % of control [3, 7]: 69%
- IL-10 [3, 8]: 63 pg/mL
- IL-10 % of control [3, 8]: 56%
- IL-10 [3, 9]: 0 pg/mL
- IL-1β [4, 10]: 636 pg/mL
- IL-1β % of control [4, 10]: 86%
- IL-1β [4, 11]: 2704 pg/mL
- IL-1β % of control [4, 11]: 106%
- IL-1β ([4]; Medium (no LPS), concentration of test compound not given): 0 pg/mL
- IL-23 pg/ml ([1]; Control (medium), test compound 1 μg/ml): 227 pg/mL
- IL-23 pg/ml [1, 12]: 356 pg/mL
- IL-23 pg/ml [1, 13]: 373 pg/mL
- IL-23 pg/ml ([1]; LTA 5 μg/ml, test compound 1 μg/ml): 349 pg/mL
- TNF ([5]; LPS 20 ng/ml): 1 pg/mL
- TNF ([5]; Medium (no LPS)): 0 pg/mL
- TNF ([6]; LPS 20 ng/ml): 2119 pg/mL
- TNF ([6]; Medium): 530 pg/mL

Compound: hBD1: human beta defensin 1 (SEQ ID NO:1), prepared using chemical synthesis (DHYNCVSSGGQCLYSACPIFTKIQGTCYRGKAKCCK; not fully specified; cysteine pairing not given here; listed as Homo sapiens)
- TNF ([2]; 1 μg/ml, LPS 0.6 ng/ml): 474 pg/mL
- TNF % of control ([2]; 1 μg/ml, LPS 0.6 ng/ml): 65%
- TNF ([2]; 1 μg/ml, LPS 20 ng/ml): 1395 pg/mL
- TNF % of control ([2]; 1 μg/ml, LPS 20 ng/ml): 64%
- TNF ([2]; 1 μg/ml, Medium): 1 pg/mL
- TNF ([2]; 10 μg/ml, LPS 0.6 ng/ml): 203 pg/mL
- TNF % of control ([2]; 10 μg/ml, LPS 0.6 ng/ml): 28%
- TNF ([2]; 10 μg/ml, LPS 20 ng/ml): 1311 pg/mL
- TNF % of control ([2]; 10 μg/ml, LPS 20 ng/ml): 61%
- TNF ([2]; 10 μg/ml, Medium): 0 pg/mL
- TNF ([2]; 40 μg/ml, LPS 0.6 ng/ml): 91 pg/mL
- TNF % of control ([2]; 40 μg/ml, LPS 0.6 ng/ml): 13%
- TNF ([2]; 40 μg/ml, LPS 20 ng/ml): 999 pg/mL
- TNF % of control ([2]; 40 μg/ml, LPS 20 ng/ml): 46%
- TNF ([2]; 40 μg/ml, Medium): 0 pg/mL
- IL-10 ([3]; 1 μg/ml, LPS 0.6 ng/ml): 71 pg/mL
- IL-10 % of control ([3]; 1 μg/ml, LPS 0.6 ng/ml): 108%
- IL-10 ([3]; 1 μg/ml, LPS 20 ng/ml): 95 pg/mL
- IL-10 % of control ([3]; 1 μg/ml, LPS 20 ng/ml): 85%
- IL-10 ([3]; 1 μg/ml, Medium): 0 pg/mL
- IL-10 ([3]; 10 μg/ml, LPS 0.6 ng/ml): 76 pg/mL
- IL-10 % of control ([3]; 10 μg/ml, LPS 0.6 ng/ml): 114%
- IL-10 ([3]; 10 μg/ml, LPS 20 ng/ml): 100 pg/mL
- IL-10 % of control ([3]; 10 μg/ml, LPS 20 ng/ml): 90%
- IL-10 ([3]; 10 μg/ml, Medium): 0 pg/mL
- IL-10 ([3]; 40 μg/ml, LPS 0.6 ng/ml): 69 pg/mL
- IL-10 % of control ([3]; 40 μg/ml, LPS 0.6 ng/ml): 104%
- IL-10 ([3]; 40 μg/ml, LPS 20 ng/ml): 113 pg/mL
- IL-10 % of control ([3]; 40 μg/ml, LPS 20 ng/ml): 102%
- IL-10 ([3]; 40 μg/ml, Medium): 0 pg/mL
- IL-1β [4, 12]: 512 pg/mL
- IL-1β % of control [4, 12]: 69%
- IL-1β [4, 14]: 401 pg/mL
- IL-1β % of control [4, 14]: 54%
- IL-1β [4, 15]: 302 pg/mL
- IL-1β % of control [4, 15]: 41%
- IL-1β [4, 13]: 2087 pg/mL
- IL-1β % of control [4, 13]: 82%
- IL-1β [4, 16]: 1913 pg/mL
- IL-1β % of control [4, 16]: 75%
- IL-1β [4, 17]: 1599 pg/mL
- IL-1β % of control [4, 17]: 63%
- IL-1β ([4]; Medium (no LPS), test compound 1 μg/ml): 0 pg/mL
- IL-1β ([4]; Medium (no LPS), test compound 10 μg/ml): 0 pg/mL
- IL-1β ([4]; Medium (no LPS), test compound 40 μg/ml): 0 pg/mL
